Reference: patent US20240034731A1, “AZA-QUINAZOLINE COMPOUNDS AND METHODS OF USE” (Iambic Therapeutics, Inc., priority 2022, published 2024)
pIC50: −log10 of the molar value.

Assays:
CDK1/Cyclin B1 = CDK1/Cyclin B1 (Homo sapiens (Human), UniProt P06493); experiment: CDK1/Cyclin B1 ADP-Glo Kinase Assay; format: biochemical; conditions: ADP-Glo, 80 uM ATP; read-out: CDK1 Cyclin B1 IC50
Outline: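 Enzyme and inhibitor pre-incubated 30 min at room temperature before ATP/substrate addition; reaction run 90 min at room temperature. ADP formed measured by ADP-Glo luminescence; IC50 from a 4-parameter fit of fractional velocity versus inhibitor concentration.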

CDK2/Cyclin E1 = CDK2/Cyclin E1 (Homo sapiens (Human), UniProt P24941); experiment: CDK2/Cyclin E1 Full length ADP-Glo Kinase Assay; format: biochemical; conditions: 20 uM ATP, read-out: CDK2/ CyclinE1 IC50
Outline: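 Full-length human CDK2/cyclin E1 was preincubated 30 min at room temperature with inhibitor, then reacted 90 min with ATP-containing substrate solution. ADP formed was measured by ADP-Glo luminescence; IC50 from 4-parameter fit of fractional velocity versus inhibitor concentration.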

CDK4/Cyclin D1 = CDK4/Cyclin D1 (Homo sapiens (Human), UniProt P11802); experiment: CDK4/Cyclin D1 Mobility Shift Assay (MSA); format: biochemical; conditions: 0.2 mM ATP, read-out: CDK4/ CyclinD1 MSA IC50
Text: CDK4/Cyclin D1 Mobility Shift Assay (MSA)
The purpose CDK4/Cyclin D1 assay is to evaluate the inhibition (% inhibition and IC50 values) in the presence of small molecule inhibitors by using a fluorescence based microfluidic mobility shift assay. CDK4/Cyclin D1 catalyzes the production of ADP from ATP that accompanies the phosphoryl transfer to the substrate peptide 5-FAM-Dyrktide (5-FAM-[…]) (Perkin Elmer Peptide 34). The mobility shift assay (MSA) electrophoretically separates the fluorescently labelled peptides (substrate and phosphorylated product) following the kinase reaction. Both substrate and product are measured, and the ratio of these values is used to generate % conversion of substrate to product by the LabChip EZ Reader. Typical reaction solutions contained 2% DMSO (+/− inhibitor), 10 mM MgCl2, 1 mM EGTA, 0.05% BSA, 2 mM DTT, 0.2 mM ATP, 0.01% Brig-35, 1.5 uM 5-FAM-Dyrktide, 2.5 nM CDK4/Cyclin D1 in 50 mM HEPES buffer at pH 7.5. The reaction was initiated with the addition of substrate solution, following a 30-minute pre-incubation of enzyme and inhibitor at 22° C. in the reaction mix. The reaction was stopped after 180 minutes by the addition of 75 uL of 500 mM EDTA and measured on a Perkin Elmer EZ reader instrument. IC50 determinations were made from a plot of the fractional velocity as a function of inhibitor concentration fit to the 4 parameters IC50 equation.

CDK6/Cyclin D3 = CDK6/Cyclin D3 (Homo sapiens (Human), UniProt Q00534); experiment: CDK6/Cyclin D3 ADP-Glo Kinase Assay; format: biochemical; conditions: 100 uM ATP, read-out: CDK6/ CyclinD3 IC50
Outline: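 Enzyme and inhibitor were pre-incubated for 30 min at room temperature before ATP/substrate was added. The kinase reaction ran 90 min at room temperature, and ADP formed was detected by ADP-Glo luminescence. IC50 was fitted with a 4-parameter equation to fractional velocity versus inhibitor concentration.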

MCF-7 cells = experiment: Cell Growth Inhibition, MCF-7 (CellTiterGlo, 6 days); format: cell-based; conditions: Homo sapiens, MCF7, 144 h, MCF-7, 6-day treatment
Outline: (§1)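 MCF-7 (ER+ breast adenocarcinoma) or CCNE1-amplified OVCAR-3 cells, 500/well in RPMI with 10% FBS, treated with half-log dilutions typically 10-10,000 nM for 6 days at 37 °C. CellTiterGlo 2.0 luminescence gave % growth inhibition versus control; IC50 by four-parameter variable-slope fit.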

OVCAR-3 cells = experiment: Cell Growth Inhibition, OVCAR-3 (CellTiterGlo, 6 days); format: cell-based; conditions: Homo sapiens, 144 h, OVCAR-3, 6-day treatment
Outline: as §1

Chain of CDK1/Cyclin B1 (P06493 whole entry): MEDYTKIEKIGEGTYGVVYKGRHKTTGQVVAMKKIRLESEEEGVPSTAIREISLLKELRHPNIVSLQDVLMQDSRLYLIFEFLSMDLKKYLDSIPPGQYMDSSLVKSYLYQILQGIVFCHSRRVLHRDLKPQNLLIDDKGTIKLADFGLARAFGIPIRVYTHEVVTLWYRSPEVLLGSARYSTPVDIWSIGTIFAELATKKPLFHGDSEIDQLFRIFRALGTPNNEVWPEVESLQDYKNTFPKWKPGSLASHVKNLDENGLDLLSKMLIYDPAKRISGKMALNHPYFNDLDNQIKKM
Chain of CDK1/Cyclin B1 (P14635 whole entry partner): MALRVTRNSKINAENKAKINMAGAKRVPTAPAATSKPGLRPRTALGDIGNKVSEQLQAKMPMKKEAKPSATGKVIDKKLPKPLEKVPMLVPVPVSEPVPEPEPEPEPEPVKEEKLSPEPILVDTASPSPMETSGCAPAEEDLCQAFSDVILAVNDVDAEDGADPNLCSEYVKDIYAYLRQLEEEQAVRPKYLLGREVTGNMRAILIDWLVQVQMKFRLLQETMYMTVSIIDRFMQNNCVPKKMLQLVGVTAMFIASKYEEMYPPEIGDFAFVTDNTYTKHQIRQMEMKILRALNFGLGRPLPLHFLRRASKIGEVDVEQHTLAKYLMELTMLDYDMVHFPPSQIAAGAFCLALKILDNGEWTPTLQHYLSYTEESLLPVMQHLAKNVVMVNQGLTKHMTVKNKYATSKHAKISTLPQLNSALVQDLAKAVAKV
Chain of CDK6/Cyclin D3 (Q00534 whole entry): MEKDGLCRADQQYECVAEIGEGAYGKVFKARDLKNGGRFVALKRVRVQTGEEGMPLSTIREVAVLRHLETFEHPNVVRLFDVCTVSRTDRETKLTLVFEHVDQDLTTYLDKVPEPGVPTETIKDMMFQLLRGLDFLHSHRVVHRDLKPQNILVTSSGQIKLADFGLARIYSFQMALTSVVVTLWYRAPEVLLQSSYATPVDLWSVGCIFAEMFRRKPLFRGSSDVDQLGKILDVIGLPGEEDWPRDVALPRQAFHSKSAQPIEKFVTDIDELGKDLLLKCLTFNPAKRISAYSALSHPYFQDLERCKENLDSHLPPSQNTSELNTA
Chain of CDK6/Cyclin D3 (P30281 whole entry partner): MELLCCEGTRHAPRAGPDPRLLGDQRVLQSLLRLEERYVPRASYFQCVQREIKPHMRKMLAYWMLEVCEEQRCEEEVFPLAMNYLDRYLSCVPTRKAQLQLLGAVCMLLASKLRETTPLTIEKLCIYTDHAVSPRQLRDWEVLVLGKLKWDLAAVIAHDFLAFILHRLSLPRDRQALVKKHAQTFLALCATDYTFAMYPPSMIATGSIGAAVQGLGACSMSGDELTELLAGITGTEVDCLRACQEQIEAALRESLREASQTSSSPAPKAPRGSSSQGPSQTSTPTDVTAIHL
Chain of CDK4/Cyclin D1 (P11802 whole entry): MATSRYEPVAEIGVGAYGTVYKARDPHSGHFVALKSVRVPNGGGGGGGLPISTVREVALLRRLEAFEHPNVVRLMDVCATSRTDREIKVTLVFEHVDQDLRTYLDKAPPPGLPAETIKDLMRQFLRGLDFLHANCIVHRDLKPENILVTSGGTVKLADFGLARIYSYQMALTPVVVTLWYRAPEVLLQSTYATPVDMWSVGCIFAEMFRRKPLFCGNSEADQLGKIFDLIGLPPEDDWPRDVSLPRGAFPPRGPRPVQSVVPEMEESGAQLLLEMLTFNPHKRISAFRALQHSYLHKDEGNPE
Chain of CDK4/Cyclin D1 (P24385 whole entry partner): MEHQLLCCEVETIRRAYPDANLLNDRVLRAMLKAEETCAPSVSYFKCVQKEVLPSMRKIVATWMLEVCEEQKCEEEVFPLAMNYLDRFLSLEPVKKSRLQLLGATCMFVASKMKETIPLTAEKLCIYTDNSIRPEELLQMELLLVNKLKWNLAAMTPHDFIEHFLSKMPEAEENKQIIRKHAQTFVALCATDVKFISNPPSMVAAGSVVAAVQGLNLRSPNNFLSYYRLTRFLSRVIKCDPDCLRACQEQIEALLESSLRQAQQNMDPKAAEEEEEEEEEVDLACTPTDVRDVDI

| SMILES | pIC50 (CDK1/Cyclin B1) | pIC50 (CDK2/Cyclin E1) | pIC50 (CDK4/Cyclin D1) | pIC50 (CDK6/Cyclin D3) | pIC50 (MCF-7 cells) | pIC50 (OVCAR-3 cells) |
| --- | --- | --- | --- | --- | --- | --- |
| CS(=O)(=O)N1CCC(Nc2ncc3ccnc(N4CCN(C5CC5)CC4)c3n2)CC1 [Compound 1, 8-(4-cyclopropylpiperazin-1-yl)-N-(1-(methylsulfonyl)piperidin-4-yl)pyrido[3,4-d]pyrimidin-2-amine] | 5.70 to 6.30 | > 6.70 | > 6.70 | 6.30 to 6.70 | 5.70 to 6.30 | < 5.70 |
| CS(=O)(=O)N1CCC(Nc2ncc3ccnc(N4CCC5(C4)CC5(F)F)c3n2)CC1 (stereo not drawn) [Compound 3, 8-(1,1-difluoro-5-azaspiro[2.4]heptan-5-yl)-N-(1-(methylsulfonyl)piperidin-4-yl)pyrido[3,4-d]pyrimidin-2-amine] | > 6.70 | > 6.70 | > 6.70 | > 6.70 | 5.70 to 6.30 | > 6.70 |
| CN1CCN(c2ccc(Nc3ncc4ccnc(N5CCC6(C5)CC(F)(F)C6)c4n3)cc2)CC1 [Compound 4, 8-(2,2-difluoro-6-azaspiro[3.4]octan-6-yl)-N-(4-(4-methylpiperazin-1-yl)phenyl)pyrido[3,4-d]pyrimidin-2-amine] | 6.30 to 6.70 | > 6.70 | > 6.70 | > 6.70 | 6.30 to 6.70 | 5.70 to 6.30 |
| CS(=O)(=O)N1CCC(Nc2ncc3ccnc(N4CCC(C#N)(C5CC5)C4)c3n2)CC1 (stereo not drawn) [Compound 5, 3-cyclopropyl-1-(2-((1-(methylsulfonyl)piperidin-4-yl)amino)pyrido[3,4-d]pyrimidin-8-yl)pyrrolidine-3-carbonitrile] | > 6.70 | > 6.70 | > 6.70 | > 6.70 | 5.70 to 6.30 | 5.70 to 6.30 |
| CS(=O)(=O)N1CCC(Nc2ncc3ccnc(N4CCC5(CCOCC5)C4)c3n2)CC1 [Compound 7, N-(1-(methylsulfonyl)piperidin-4-yl)-8-(8-oxa-2-azaspiro[4.5]decan-2-yl)pyrido[3,4-d]pyrimidin-2-amine] | 6.30 to 6.70 | > 6.70 | > 6.70 | > 6.70 | 5.70 to 6.30 | 5.70 to 6.30 |
| CS(=O)(=O)N1CCC(Nc2ncc3ccnc(N4CC5(C4)CN(C4CC4)C5)c3n2)CC1 [Compound 8, 8-(6-cyclopropyl-2,6-diazaspiro[3.3]heptan-2-yl)-N-(1-(methylsulfonyl)piperidin-4-yl)pyrido[3,4-d]pyrimidin-2-amine] | 6.30 to 6.70 |  | > 6.70 |  | 5.70 to 6.30 | > 6.70 |
| CN1CCN(c2ccc(Nc3ncc4ccnc(N5CCC6(CCN(S(C)(=O)=O)C6)C5)c4n3)cc2)CC1 (stereo not drawn) [Compound 9, N-(4-(4-methylpiperazin-1-yl)phenyl)-8-(7-(methylsulfonyl)-2,7-diazaspiro[4.4]nonan-2-yl)pyrido[3,4-d]pyrimidin-2-amine] | 6.30 to 6.70 |  | > 6.70 |  | 5.70 to 6.30 | 5.70 to 6.30 |
| CCN1CC2(C1)CN(c1ccc(Nc3ncc4ccnc(N5CCC6(C5)CC(F)(F)C6)c4n3)nc1)C2 [Example 6, 8-(2,2-difluoro-6-azaspiro[3.4]octan-6-yl)-N-(5-(6-ethyl-2,6-diazaspiro[3.3]heptan-2-yl)pyridin-2-yl)pyrido[3,4-d]pyrimidin-2-amine] | < 5.70 | 5.70 to 6.30 | > 6.70 | > 6.70 | 5.70 to 6.30 | < 5.70 |

Second part, the compound after the results:

| pIC50 (CDK1/Cyclin B1) | pIC50 (CDK2/Cyclin E1) | pIC50 (CDK4/Cyclin D1) | pIC50 (CDK6/Cyclin D3) | pIC50 (MCF-7 cells) | pIC50 (OVCAR-3 cells) | SMILES |
| --- | --- | --- | --- | --- | --- | --- |
| < 5.70 | > 6.70 | > 6.70 | > 6.70 | 5.70 to 6.30 | 5.70 to 6.30 | CN1CCn2nc(Nc3ncc4ccnc(N5CCC6(C5)CC6(F)F)c4n3)cc2C1 (stereo not drawn) [Compound 10, 8-(1,1-difluoro-5-azaspiro[2.4]heptan-5-yl)-N-(5-methyl-4,5,6,7-tetrahydropyrazolo[1,5-a]pyrazin-2-yl)pyrido[3,4-d]pyrimidin-2-amine] |
| 6.30 to 6.70 | > 6.70 | > 6.70 | > 6.70 | < 5.70 | < 5.70 | CS(=O)(=O)N1CC(Nc2ncc3ccnc(N4CCC5(C4)CC5(F)F)c3n2)C1 (stereo not drawn) [Compound 14, 8-(1,1-difluoro-5-azaspiro[2.4]heptan-5-yl)-N-(1-(methylsulfonyl)azetidin-3-yl)pyrido[3,4-d]pyrimidin-2-amine] |
| < 5.70 | 5.70 to 6.30 | 5.70 to 6.30 | < 5.70 | < 5.70 | < 5.70 | CN1C[C@@H]2[C@H](C1)[C@H]2Nc1ncc2ccnc(N3CCC4(CCN(S(C)(=O)=O)C4)C3)c2n1 (stereo partly drawn) [Compound 15, N-((1R,5S,6s)-3-methyl-3-azabicyclo[3.1.0]hexan-6-yl)-8-(7-(methylsulfonyl)-2,7-diazaspiro[4.4]nonan-2-yl)pyrido[3,4-d]pyrimidin-2-amine] |
| < 5.70 | 6.30 to 6.70 | > 6.70 | 6.30 to 6.70 | 5.70 to 6.30 | 5.70 to 6.30 | CN1C[C@@H]2[C@H](C1)[C@H]2Nc1ncc2ccnc(N3CCC4(C3)CC4(F)F)c2n1 (stereo partly drawn) [Compound 17, 8-(1,1-difluoro-5-azaspiro[2.4]heptan-5-yl)-N-((1R,5S,6s)-3-methyl-3-azabicyclo[3.1.0]hexan-6-yl)pyrido[3,4-d]pyrimidin-2-amine] |
| < 5.70 | 5.70 to 6.30 | > 6.70 | > 6.70 | 6.30 to 6.70 | < 5.70 | CCN1CC2(C1)CN(c1ccc(Nc3ncc4ccnc(N5CCC6(CCOCC6)C5)c4n3)nc1)C2 [Compound 18, N-(5-(6-ethyl-2,6-diazaspiro[3.3]heptan-2-yl)pyridin-2-yl)-8-(8-oxa-2-azaspiro[4.5]decan-2-yl)pyrido[3,4-d]pyrimidin-2-amine] |
| < 5.70 | > 6.70 | 5.70 to 6.30 | < 5.70 | < 5.70 | < 5.70 | CS(=O)(=O)N1CCC(Nc2ncc3ccnc(N4CC5(CCCC5)c5c(F)cccc54)c3n2)CC1 [Compound 19, 8-(4′-fluorospiro[cyclopentane-1,3′-indolin]-1′-yl)-N-(1-(methylsulfonyl)piperidin-4-yl)pyrido[3,4-d]pyrimidin-2-amine] |
| 5.70 to 6.30 | > 6.70 | > 6.70 | > 6.70 | 5.70 to 6.30 | 6.30 to 6.70 | CN1CCC(n2cc(Nc3ncc4ccnc(N5CCC6(C5)CC6(F)F)c4n3)cn2)CC1 (stereo not drawn) [Compound 20, 8-(1,1-difluoro-5-azaspiro[2.4]heptan-5-yl)-N-(1-(1-methylpiperidin-4-yl)-1H-pyrazol-4-yl)pyrido[3,4-d]pyrimidin-2-amine] |
| < 5.70 | 6.30 to 6.70 | > 6.70 | > 6.70 |  |  | CCN1CC2(C1)CN(c1ccc(Nc3ncc4ccnc(N5CCC6(C5)CC6(F)F)c4n3)nc1)C2 (stereo not drawn) [Compound 21, 8-(1,1-difluoro-5-azaspiro[2.4]heptan-5-yl)-N-(5-(6-ethyl-2,6-diazaspiro[3.3]heptan-2-yl)pyridin-2-yl)pyrido[3,4-d]pyrimidin-2-amine] |
| > 6.70 | > 6.70 | > 6.70 | > 6.70 | 6.30 to 6.70 | 6.30 to 6.70 | CN1Cc2ccc(Nc3ncc4ccnc(N5CCC6(C5)CC6(F)F)c4n3)cc2C1 (stereo not drawn) [Compound 22, 8-(1,1-difluoro-5-azaspiro[2.4]heptan-5-yl)-N-(2-methylisoindolin-5-yl)pyrido[3,4-d]pyrimidin-2-amine] |
| > 6.70 | > 6.70 | > 6.70 | > 6.70 | 5.70 to 6.30 | 5.70 to 6.30 | CS(=O)(=O)N1CCC(Nc2ncc3ccnc(N4CCC5(C4)CC(F)(F)C5)c3n2)CC1 [Example 2, 8-(2,2-difluoro-6-azaspiro[3.4]octan-6-yl)-N-(1-(methylsulfonyl)piperidin-4-yl)pyrido[3,4-d]pyrimidin-2-amine] |
